Measurements published in ChEMBL document CHEMBL5136972, “Targeting SARS-CoV-2 Proteases and Polymerase for COVID-19 Treatment: State of the Art and Future Opportunities” (J Med Chem, 2022).

Assays:
[1] = target: T1, Replicase polyprotein 1ab (Severe acute respiratory syndrome coronavirus 2, UniProt P0DTD1); test: Inhibition of SARS CoV-2 PL protease
[2] = Half life in mouse at 2 mg/kg, IM; assay type: ADME, organism-based; conditions: in vivo
[3] = Half life in Sprague-Dawley […] measured up to 24 hrs; assay type: ADME, organism-based
SARS-CoV-2 [4] = test: Antiviral activity against SARS CoV-2 assessed as inhibition of virus-induced cytopathic effect by neutral red uptake assay; assay type: functional, organism-based; conditions: Severe acute respiratory syndrome coronavirus 2
Murine hepatitis virus [5] = test: Antiviral activity against MHV-A59 infected in African green monkey Vero cells assessed as inhibition of plaque formation by viral plaque assay; assay type: functional, organism-based; conditions: Murine coronavirus
Murine hepatitis virus [6] = test: Antiviral activity against MHV infected in African green monkey Vero cells assessed as inhibition of plaque formation by viral plaque assay; assay type: functional, organism-based; conditions: Murine coronavirus
[7] = Cytotoxicity against African green monkey Vero cells; assay type: toxicity, cell-based; conditions: chlorocebus sabaeus
Human coronavirus 229E = test: Antiviral activity against HCoV-229E infected in African green monkey Vero cells assessed as inhibition of plaque formation by viral plaque assay; assay type: functional, organism-based
[8] = Inhibition of MERS CoV 3CL protease using MCA-AVLQSGFR-Lys(Dnp)-Lys-NH2 as substrate by fluorescence based analysis; design: species or system Middle East respiratory syndrome-related coronavirus
[9] = system: Feline infectious peritonitis virus; test: Antiviral activity against FIPV infected in African green monkey Vero cells assessed as inhibition of plaque formation by viral plaque assay; assay type: functional, organism-based; conditions: Alphacoronavirus 1, Vero
[10] = Inhibition of FIPV 3CL protease using dabcyl-KTSAVLQ/SGFRKME-edans as substrate incubated for 30 mins followed by substrate addition measured after 30 mins by FRET assay; design: species or system Feline infectious peritonitis virus
[11] = Cytotoxicity against African green monkey Vero E6 cells by CCK-8 assay; assay type: toxicity, cell-based, Vero C1008; conditions: chlorocebus sabaeus
[12] = Inhibition of TGEV 3CL protease using Dabcyl-KTSAVLQ/SGFRKME-Edans as substrate incubated for 30 mins followed by substrate addition measured after 30 mins by FRET assay; design: species or system Transmissible gastroenteritis virus
[13] = Inhibition of MERS 3CL protease using Dabcyl-KTSAVLQ/SGFRKME-Edans as substrate incubated for 30 mins followed by substrate addition measured after 30 mins by FRET assay; design: species or system Middle East respiratory syndrome-related coronavirus
[14] = Clearance in CD-1 mouse at 5 mg/kg, iv measured after up to 24 hrs by LC-MS/MS analysis; assay type: ADME, organism-based; conditions: in vivo
[15] = Bioavailability in CD-1 mouse at 5 mg/kg, iv measured after up to 24 hrs by LC-MS/MS analysis; assay type: ADME, organism-based; conditions: in vivo
[16] = Clearance in Sprague-Dawley rat at 10 mg/kg, iv measured after up to 24 hrs by LC-MS/MS analysis; assay type: ADME, organism-based; conditions: in vivo
[17] = Clearance in Beagle dog at 5 mg/kg, iv measured after up to 24 hrs by LC-MS/MS analysis; assay type: ADME, organism-based, Canis lupus familiaris; conditions: in vivo
[18] = AUClast in Sprague-Dawley rat at 10 mg/kg, iv measured after up to 24 hrs by LC-MS/MS analysis; assay type: ADME, organism-based; design: time < 24 hrs, dose 10 mg/kg, route iv; conditions: in vivo
[19] = AUClast in Beagle dog at 5 mg/kg, iv measured after up to 24 hrs by LC-MS/MS analysis; assay type: ADME, organism-based, Canis lupus familiaris; design: time < 24 hrs, dose 5 mg/kg, route iv; conditions: in vivo
SARS-CoV-2 [20] = test: Antiviral activity against SARS CoV-2 infected in African green monkey Vero cells assessed as inhibition of plaque formation by viral plaque assay; assay type: functional, organism-based; conditions: Severe acute respiratory syndrome coronavirus 2, Vero
[21] = Half life in Beagle dog at 5 mg/kg, iv measured after up to 24 hrs by LC-MS/MS analysis; assay type: ADME, organism-based, Canis lupus familiaris; conditions: in vivo
[22] = Half life in Sprague-Dawley rat at 10 mg/kg, iv measured after up to 24 hrs by LC-MS/MS analysis; assay type: ADME, organism-based; conditions: in vivo
[23] = Half life in CD-1 mouse at 5 mg/kg, iv measured after up to 24 hrs by LC-MS/MS analysis; assay type: ADME, organism-based; conditions: in vivo
[24] = Cmax in CD-1 mouse at 5 mg/kg, iv measured after up to 24 hrs by LC-MS/MS analysis; assay type: ADME, organism-based; design: dose 5 mg/kg, time < 24 hrs, route iv; conditions: in vivo
[25] = target: T1, Replicase polyprotein 1ab; test: Inhibition of N-terminal recombinant SARS CoV 2 3CL protease expressed in Escherichia coli BL21-DE3 cells using MCA-AVLQSGFR-Lys(Dnp)-Lys-NH2 as substrate by FRET assay
SARS-CoV-2 [26] = test: Antiviral activity against SARS CoV-2 infected in human Calu-3 cells measured after 24 hrs by qRT-PCR analysis; assay type: functional, organism-based; conditions: Severe acute respiratory syndrome coronavirus 2, Calu-3, 24 h
[27] = target: T1, Replicase polyprotein 1ab; test: Inhibition of C-terminal 6-His-tagged recombinant SARS CoV-2 3CL protease expressed in Escherichia coli BL21-Gold DE3 cells by FRET assay
[28] = Cytotoxicity against African green monkey Vero E6 cells incubated for 3 hrs by CCK-8 assay; assay type: toxicity, cell-based, Vero C1008; conditions: chlorocebus sabaeus

CC(=O)N[C@@H](CCc1ccc(O)cc1)C(=O)N[C@@H](CN)C(=O)NCC(=O)NC/C=C/C(=O)O
IC50 [1]: 10000 nM

Nc1ncnc2c([C@@H]3N[C@H](CO)[C@@H](O)[C@H]3O)c[nH]c12
half-life [2]: < 5 min
half-life [3]: 6.2 h
EC50 (SARS-CoV-2 [4]): 57700 nM

Cc1cc(C(=O)N[C@@H](C)C(=O)N[C@H](C(=O)N[C@@H](CC(C)C)C(=O)N[C@H](/C=C/C(=O)OCc2ccccc2)C[C@@H]2CCNC2=O)C(C)C)no1
EC50 (Murine hepatitis virus [5]): 2700 nM
EC50 (Murine hepatitis virus [6]): 3400 nM
CC50 [7]: > 133000 nM
EC50 (Human coronavirus 229E): 4000 nM
IC50 [8]: 300 nM
EC50 [9]: 8800 nM

CC(C)C[C@H](NC(=O)OCc1ccccc1)C(=O)N[C@@H](C[C@@H]1CCNC1=O)C(O)S(=O)(=O)O (stereo not given in full)
IC50 [10]: 720 nM
CC50 [11]: > 100000 nM
IC50 [12]: 820 nM
IC50 [13]: 1560 nM

O=C[C@H](C[C@@H]1CCNC1=O)NC(=O)[C@H](CC1CC1)NC(=O)c1cc2ccccc2[nH]1
clearance [14]: 17 mL/min/kg
bioavailability [15]: > 85%
clearance [16]: 4.01 mL/min/kg
clearance [17]: 5.8 mL/min/kg
AUC(0-t) at 24 h [18]: 41500 ng·h/mL
AUC(0-t) at 24 h [19]: 14900 ng·h/mL
EC50 (SARS-CoV-2 [20]): 520 nM
CC50 [11]: > 100000 nM
half-life [21]: 5.5 h
half-life [22]: 7.6 h
half-life [23]: 4.4 h
Cmax [24]: > 2360 ng/mL
IC50 [25]: 53 nM

Nc1cccn([C@@H](CC2CC2)C(=O)N[C@@H](C[C@@H]2CCNC2=O)C(=O)C(=O)NCc2ccccc2)c1=O
EC50 (SARS-CoV-2 [26]): > 40000 nM
IC50 [27]: 1340 nM

O=c1cc(-c2ccccc2)oc2cc(O)c(O)c(O)c12 [BAICALEIN]
CC50 at 3 h [28]: > 200000 nM
